Article PMC6009910, “Tertiary amine derivatives of chlorochalcone as acetylcholinesterase (AChE) and buthylcholinesterase (BuChE) inhibitors: the influence of chlorine, alkyl amine side chain and α,β-unsaturated ketone group” (Journal of Enzyme Inhibition and Medicinal Chemistry, 2016)
Several values for one entry are separate records, joined by “and”; a condition that tells them apart may be missing. Identical values can stand only once. Entries after “also recorded” stand apart in the source; their conditions may differ.

Experiments:
[1] = target: T1, AChE (Rattus norvegicus, UniProt P37136); assay: biochemical; assay type: biochemical; details: for IC50: rat brain AChE, means ± SD of three experiments; for Selectivity for AChE, IC50 (BuChE)/IC50 (AChE): ratio IC50 (BuChE)/IC50 (AChE)
T1 construct: The brain and serum of Sprague–Dawley rat was used as the resource of AChE and BuChE, respectively; from tissue; host or cells: Sprague-Dawley rat brain
Method: (§1) AChE/BuChE activity assays were conducted by Ellman method with light modification. The brain and serum of Sprague–Dawley rat was used as the resource of AChE and BuChE, respectively. Each compound was dissolved in Tween 80 and diluted with water to various concentrations immediately before use. The reaction mixture containing 40 µL AChE/BuChE, 100 µL acetylthiocholine iodide/S-Butyrylthiocholine iodide, 2.76 mL Na2HPO4/NaH2PO4 buffer (pH 8.0, 0.1 mol/L), and 100 µL different concentrations of test compounds were incubated at 30 °C for 25 min. Then the reaction was terminated via adding 100 µL 20% sodium dodecyl sulfate (SDS), then 100 µL 10 mmol/L 5, 5'-Dithiobis-(2-nitrobenzoic acid) (DTNB) was added to generate the yellow anion 5-thio-2-nitro-benzoic acid. The absorbance of each assay mixture was measured at 412 nm by UV spectroscopy. The IC50 values were calculated by Bliss method and expressed as mean ± SD of the replicates.

[2] = target: T2, BuChE (Rattus norvegicus, UniProt Q9JKC1); assay: BuChE inhibition assay (Ellman method); assay type: biochemical, Sprague–Dawley rat
T2 construct: The brain and serum of Sprague–Dawley rat was used as the resource of AChE and BuChE, respectively; from tissue; host or cells: Sprague-Dawley rat serum
Method: as §1

[3] = Log p measurement by shake flask method; assay type: physicochemical; details: octanol / PBS (pH =7.4), triplicate
Method: Log p, defined as the logarithm of octanol-water partition coefficient is an important parameter to evaluate the lipophilicify of compounds. It can be calculated by determining the concentration of compound in octanol phase and water phase until the partition equilibrium was completed. In present investigation, log p of compounds 4a∼4l was measured by the shake flask method with slight modification, and PBS (pH =7.4) was used as the water phase. The mobile phase was methanol: 0.1% triethylamine (TEA)/80:20 (v/v), at a flow rate of 1.0 mL.min^−1 through a C18 column ([…] ×4.6 mm, 5 µm) at 32 °C with detect wavelength 318 nm. Experiments were conducted in triplicate and log p values were calculated.

[4] = target: T1, AChE; assay: Kinetic studies of AChE inhibition (Lineweaver–Burk); assay type: biochemical
Method: as §1, with “replicates. Rivastigmine was used as the control drug.” for “replicates.”
Kinetic experiment was conducted by a reported method with some modifications. Compound 4l was added into the assay solution and pre-incubated with the enzyme at 30 °C, followed by the addition of 100-µL acetylthiocholine iodide including five concentrations. The assay solution contained 100 µL compound 4l, 100 µL DTNB, 2.76 mL 0.1 mol/L Na2HPO4/NaH2PO4 buffer (pH 8.0). Kinetic profile of AChE was determined by UV spectrophotometer at 412 nm. Additionally, the blank control experiment was conducted with the vehicle to replace compound 4l solution.

T2 sequence (Q9JKC1 24-597): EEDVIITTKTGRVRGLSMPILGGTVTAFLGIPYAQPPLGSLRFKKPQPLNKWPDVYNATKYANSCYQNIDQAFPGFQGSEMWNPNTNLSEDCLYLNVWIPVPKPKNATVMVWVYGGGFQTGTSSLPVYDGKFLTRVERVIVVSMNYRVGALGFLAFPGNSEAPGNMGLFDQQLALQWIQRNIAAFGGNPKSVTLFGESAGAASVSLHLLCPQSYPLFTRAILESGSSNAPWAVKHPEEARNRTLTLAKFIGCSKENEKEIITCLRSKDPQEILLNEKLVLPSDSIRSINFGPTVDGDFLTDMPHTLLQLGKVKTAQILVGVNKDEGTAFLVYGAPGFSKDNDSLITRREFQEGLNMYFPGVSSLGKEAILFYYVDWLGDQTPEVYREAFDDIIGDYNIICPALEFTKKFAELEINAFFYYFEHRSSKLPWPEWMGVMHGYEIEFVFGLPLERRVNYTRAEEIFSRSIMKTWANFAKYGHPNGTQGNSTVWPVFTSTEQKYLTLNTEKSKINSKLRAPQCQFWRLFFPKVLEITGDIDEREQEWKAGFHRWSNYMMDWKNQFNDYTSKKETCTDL
T1 sequence (P37136 32-614): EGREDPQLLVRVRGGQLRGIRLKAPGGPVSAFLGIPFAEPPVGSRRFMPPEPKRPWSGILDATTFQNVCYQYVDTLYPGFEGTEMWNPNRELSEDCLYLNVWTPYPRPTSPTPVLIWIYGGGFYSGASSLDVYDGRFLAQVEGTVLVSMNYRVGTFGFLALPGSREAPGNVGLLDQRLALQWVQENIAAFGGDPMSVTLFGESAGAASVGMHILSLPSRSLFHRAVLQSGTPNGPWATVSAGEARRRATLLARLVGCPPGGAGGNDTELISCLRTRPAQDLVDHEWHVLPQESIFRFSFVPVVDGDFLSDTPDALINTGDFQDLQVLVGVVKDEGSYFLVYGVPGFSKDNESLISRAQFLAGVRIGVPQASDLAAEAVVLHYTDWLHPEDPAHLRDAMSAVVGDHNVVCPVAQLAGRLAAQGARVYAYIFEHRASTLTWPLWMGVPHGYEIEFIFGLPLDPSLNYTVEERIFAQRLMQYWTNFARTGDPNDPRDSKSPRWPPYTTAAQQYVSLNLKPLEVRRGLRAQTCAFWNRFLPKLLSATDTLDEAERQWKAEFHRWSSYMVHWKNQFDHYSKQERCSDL

Row | SMILES | IC50 [1] [µM] | IC50 [2] [µM] | Selectivity for AChE, IC50 (BuChE)/IC50 (AChE) [1] | logP [3] | other results
1 | O=C(/C=C/c1ccccc1Cl)c1ccc(O)cc1 [Compound 3a, 4'-Hydroxy-2-chlorochalcone] | > 500 | > 500 |  |  | 
2 | O=C(/C=C/c1cccc(Cl)c1)c1ccc(O)cc1 [Compound 3b, 4'-Hydroxy-3-chlorochalcone] | > 500 | > 500 |  |  | 
3 | O=C(/C=C/c1ccc(Cl)cc1)c1ccc(O)cc1 [Compound 3c, 4'-Hydroxy-4-chlorochalcone] | > 500 | > 500 |  |  | 
4 | CN(C)CCOc1ccc(C(=O)/C=C/c2ccccc2Cl)cc1 [Compound 4a, (E)-3–(2-chlorophenyl)-1–(4-(2-(dimethylamino)ethoxy)phenyl)prop-2-en-1-one] | 2.11 ± 0.38 | 41.1 ± 2.31 | 19.5 | 1.75 | 
5 | CN(C)CCOc1ccc(C(=O)/C=C/c2cccc(Cl)c2)cc1 [Compound 4b, (E)-3–(3-chlorophenyl)-1–(4-(2-(dimethylamino)ethoxy)phenyl)prop-2-en-1-one] | 3.76 ± 0.26 | 32.1 ± 7.16 | 8.5 | 1.83 | 
6 | CN(C)CCOc1ccc(C(=O)/C=C/c2ccc(Cl)cc2)cc1 [Compound 4c, (E)-3–(4-chlorophenyl)-1–(4-(2-(dimethylamino)ethoxy)phenyl)prop-2-en-1-one] | 1.55 ± 0.16 | 43.6 ± 6.94 | 28.1 | 1.61 | 
7 | CCN(CC)CCOc1ccc(C(=O)/C=C/c2ccccc2Cl)cc1 [Compound 4d, (E)-3–(2-chlorophenyl)-1–(4-(2-(diethylamino)ethoxy)phenyl)prop-2-en-1-one] | 5.42 ± 0.2 | 63.8 ± 9.21 | 11.8 | 1.63 | 
8 | CCN(CC)CCOc1ccc(C(=O)/C=C/c2cccc(Cl)c2)cc1 [Compound 4e, (E)-3–(3-chlorophenyl)-1–(4-(2-(diethylamino)ethoxy)phenyl)prop-2-en-1-one] | 5.83 ± 0.42 | 80.2 ± 7.18 | 13.8 | 1.62 | 
9 | CCN(CC)CCOc1ccc(C(=O)/C=C/c2ccc(Cl)cc2)cc1 [Compound 4f, (E)-3–(4-chlorophenyl)-1–(4-(2-(diethylamino)ethoxy)phenyl)prop-2-en-1-one] | 3.78 ± 0.39 | 101 ± 17.2 | 26.7 | 1.69 | 
10 | O=C(/C=C/c1ccccc1Cl)c1ccc(OCCN2CCCCC2)cc1 [Compound 4g, (E)-3–(2-chlorophenyl)-1–(4-(2-(piperidin-1-yl)ethoxy)phenyl)prop-2-en-1-one] | 1.8 ± 0.48 | 35.6 ± 7.31 | 19.8 | 1.75 | 
11 | O=C(/C=C/c1cccc(Cl)c1)c1ccc(OCCN2CCCCC2)cc1 [Compound 4h, (E)-3–(3-chlorophenyl)-1–(4-(2-(piperidin-1-yl)ethoxy)phenyl)prop-2-en-1-one] | 1.31 ± 0.17 | 24.5 ± 6.14 | 18.7 | 1.72 | 
12 | O=C(/C=C/c1ccc(Cl)cc1)c1ccc(OCCN2CCCCC2)cc1 [Compound 4i, (E)-3–(4-chlorophenyl)-1–(4-(2-(piperidin-1-yl)ethoxy)phenyl)prop-2-en-1-one] | 0.91 ± 0.09 | 114 ± 26.1 | 125.5 | 1.79 | 
13 | O=C(/C=C/c1ccccc1Cl)c1ccc(OCCN2CCCC2)cc1 [Compound 4j, (E)-3–(2-chlorophenyl)-1–(4-(2-(pyrrolidin-1-yl)ethoxy)phenyl)prop-2-en-1-one] | 0.81 ± 0.03 | 32.1 ± 5.71 | 39.6 | 1.85 | 
14 | O=C(/C=C/c1cccc(Cl)c1)c1ccc(OCCN2CCCC2)cc1 [Compound 4k, (E)-3–(3-chlorophenyl)-1–(4-(2-(pyrrolidin-1-yl)ethoxy)phenyl)prop-2-en-1-one] | 0.28 ± 0.05 | 31.1 ± 3.41 | 110.9 | 1.81 | 
15 | O=C(/C=C/c1ccc(Cl)cc1)c1ccc(OCCN2CCCC2)cc1 [Compound 4l, (E)-3–(4-chlorophenyl)-1–(4-(2-(pyrrolidin-1-yl)ethoxy)phenyl)prop-2-en-1-one] | 0.17 ± 0.06 | 113 ± 18.2 | 667 and 667.2 | 1.83 | noncompetitive constant (Ki’) ([4]; AChE, mixed-type inhibition): 2.95 µM; inhibition type ([4]; Lineweaver–Burk analysis, Km increased and Vmax decreased with concentration): mixed-type inhibition; also recorded: mixed-type inhibitor; Ki’ ([4]; Supplement Table 2): 2.95 µM; Vmax ([4]; compound 4l at 0.22 µM): 0.0273 ΔAmin-1; Vmax ([4]; compound 4l at 0.43 µM): 0.0263 ΔAmin-1; Vmax ([4]; compound 4l at […]): 0.0230 ΔAmin-1; Ki ([4]; read-out: competitive inhibition constant (Ki)): 0.38 µM
16 | CC(=O)N1N=C(c2ccc(OCCN3CCCCC3)cc2)CC1c1ccc(Cl)cc1 (stereo not shown) [Compound 5a, 1–(5-(4-Chlorophenyl)-3–(4-(2-(piperidin-1-yl)ethoxy)phenyl)-4,5-dihydro-1H-pyrazol-1-yl) ethan-1-one] | 5.94 ± 0.27 | 97.6 ± 3.78 | 16.4 |  | 
17 | CC(=O)N1N=C(c2ccc(OCCN3CCCC3)cc2)CC1c1ccccc1Cl (stereo not shown) [Compound 5b, 1–(5-(2-Chlorophenyl)-3–(4-(2-(pyrrolidin-1-yl)ethoxy)phenyl)-4,5-dihydro-1H-pyrazol-1-yl) ethan-1-one] | 6.31 ± 0.16 | 29.9 ± 1.25 | 4.74 |  | 
18 | CC(=O)N1N=C(c2ccc(OCCN3CCCC3)cc2)CC1c1cccc(Cl)c1 (stereo not shown) [Compound 5c, 1–(5-(3-Chlorophenyl)-3–(4-(2-(pyrrolidin-1-yl)ethoxy)phenyl)-4,5-dihydro-1H-pyrazol-1-yl)ethan-1-one] | 2.41 ± 0.34 | 27.6 ± 2.58 | 11.5 |  | 
19 | CC(=O)N1N=C(c2ccc(OCCN3CCCC3)cc2)CC1c1ccc(Cl)cc1 (stereo not shown) [Compound 5d, 1–(5-(4-Chlorophenyl)-3–(4-(2-(pyrrolidin-1-yl)ethoxy)phenyl)-4,5-dihydro-1H-pyrazol-1-yl) ethan-1-one] | 2.04 ± 0.26 | 108 ± 5.56 | 52.96 |  | 
